Earlier results, collected in US6566543B2, “2-arachidonylglycerol (2-AG)-an inhibitor of tumor necrosis factor-α and neuroprotector of brain in closed head injury” (Yissum Research Development Company of The Hebrew …, priority 2000, dated 2003).

What was measured:
cannabinoid receptors = details: previously shown, Ben-Shabat et al., 1998
nitric oxide release = details: astrocytes
TNF-α = details: astrocytes

| Structure (SMILES) | activity in numerous in vivo and in vitro assays (including binding to the cannabinoid receptors) (cannabinoid receptors) | nitric oxide release (nitric oxide release) | inhibition of TNF-α production (TNF-α) |
| --- | --- | --- | --- |
| CCCCC/C=C\C/C=C\CCCCCCCC(=O)OC(CO)CO [2-LinoG, 2-linoleoylglycerol] | inactive |  |  |
| CCCCCCCCCCCCCCCC(=O)OC(CO)CO [2-PalmG, 2-palmitoylglycerol] | inactive |  |  |
| CCCCC/C=C\C/C=C\C/C=C\C/C=C\CCCC(=O)NCCO [Anandamide, arachidonylethanolamide] |  | blocked nitric oxide release | relatively modest |
